Laboratory results taken from the NIST ThermoML archive (doi:10.1021/je100720x).

Experiment: osmotic coefficient (dimensionless); mn = molality of the nth substance listed, in mol/kg
Conditions: 298.15 K, Liquid, isopiestic method

O=P([O-])([O-])O.[K+].[K+] [dipotassium hydrogen phosphate] + O
Conditions	osmotic coefficient
m1 = 0.6496	0.711
m1 = 0.7592	0.704
m1 = 1.112	0.69
m1 = 1.251	0.69
m1 = 1.604	0.689
m1 = 1.712	0.694
m1 = 1.965	0.696
m1 = 2.163	0.709

CCn1cc[n+](C)c1.[Br-] [1-ethyl-3-methylimidazolium bromide] + O
Conditions	osmotic coefficient
m1 = 0.5514	0.811
m1 = 0.6588	0.801
m1 = 0.6883	0.799
m1 = 0.7764	0.795
m1 = 0.9367	0.787
m1 = 1.04	0.786
m1 = 1.943	0.763
m1 = 2.308	0.757
m1 = 2.542	0.759
m1 = 3.189	0.763
m1 = 4.359	0.786
m1 = 5.41	0.821
m1 = 7.17	0.883

O=P([O-])([O-])[O-].[K+].[K+].[K+] [tripotassium phosphate] + O
Conditions	osmotic coefficient
m1 = 0.4308	0.694
m1 = 0.5142	0.698
m1 = 0.6347	0.705
m1 = 0.7575	0.708
m1 = 0.8132	0.716
m1 = 1.002	0.744
m1 = 1.012	0.745
m1 = 1.241	0.778
m1 = 1.695	0.866
m1 = 1.83	0.893

O=P([O-])(O)O.[K+] [monopotassium phosphate] + O
Conditions	osmotic coefficient
m1 = 0.6269	0.8
m1 = 0.9843	0.744
m1 = 1.113	0.731
m1 = 1.228	0.717
m1 = 1.27	0.715
m1 = 1.508	0.696
m1 = 1.707	0.68
